In PubChem BioAssay (NCI):
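Assay format: 96-well plates, 48-hour exposure. TGI marks complete inhibition of growth.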

Key:
Experiment in all cases: NCI anticancer screen, dose series, 48 h
[1] = test system: UACC-62 melanoma
[2] = test system: COLO 205 colon
[3] = test system: CCRF-CEM leukemia
[4] = test system: NCI-H226 lung
[5] = test system: MDA-N
[6] = test system: 786-0 renal
[7] = test system: NCI-H460 lung
[8] = test system: SW-620 colon
[9] = test system: HCT-116 colon
[10] = test system: LOX IMVI melanoma
[11] = test system: MDA-MB-435
[12] = test system: T-47D breast
[13] = test system: MOLT-4 leukemia
[14] = test system: SK-MEL-5 melanoma
[15] = test system: HS 578T breast
[16] = test system: MCF7 breast
[17] = test system: SF-268 CNS
[18] = test system: RPMI-8226 leukemia
[19] = test system: CAKI-1 renal
[20] = test system: MALME-3M melanoma
[21] = test system: NCI-H522 lung
[22] = test system: HCC-2998 colon
[23] = test system: PC-3 prostate
[24] = test system: OVCAR-8 ovarian
[25] = test system: SK-MEL-2 melanoma
[26] = test system: IGROV1 ovarian
[27] = test system: SNB-19 CNS
[28] = test system: OVCAR-5 ovarian
[29] = test system: UACC-257 melanoma
[30] = test system: SNB-75 CNS
[31] = test system: OVCAR-4 ovarian
[32] = test system: EKVX NSCLC
[33] = test system: SF-539 CNS
[34] = test system: TK-10 renal
[35] = test system: DU-145 prostate
[36] = test system: SK-OV-3 ovarian
[37] = test system: U251 CNS
[38] = test system: HOP-62 NSCLC
[39] = test system: A549 NSCLC
[40] = test system: NCI/ADR-RES ovarian
[41] = test system: SF-295 CNS
[42] = test system: SK-MEL-28 melanoma
[43] = test system: HOP-92 NSCLC
[44] = test system: MDA-MB-231 breast
[45] = test system: NCI-H23 lung
[46] = test system: HCT-15 colon
[47] = test system: SR leukemia
[48] = test system: M14 melanoma
[49] = test system: ACHN renal
[50] = test system: KM12 colon
[51] = test system: K-562 leukemia
[52] = test system: SN12C renal
[53] = test system: BT-549 breast
[54] = test system: UO-31 renal
[55] = test system: HT29 colon
[56] = test system: OVCAR-3 ovarian
[57] = test system: RXF 393 renal
[58] = test system: A498 renal
[59] = test system: HL-60(TB) leukemia

COc1ccc(C2/C(=C(\O)c3ccccc3)C(=O)C(O)(CC(=O)c3ccccc3)N2c2ccc(OC)cc2)cc1 (stereo not drawn)
TGI [1]: > 100 µM | TGI [2]: 38.8 µM | TGI [3]: 14.5 µM | TGI [4]: 66.3 µM | TGI [5]: 82.5 µM | TGI [6]: 46.7 µM | TGI [7]: > 84.8 µM | TGI [8]: > 56.6 µM | TGI [9]: 39.8 µM | TGI [10]: 39.2 µM | TGI [11]: 47.7 µM | TGI [12]: 98 µM | TGI [13]: 54 µM | TGI [14]: 29.2 µM | TGI [15]: > 100 µM | TGI [16]: > 88.5 µM | TGI [17]: > 100 µM | TGI [18]: 14.8 µM | TGI [19]: > 75.8 µM | TGI [20]: 75.7 µM | TGI [21]: 20.5 µM | TGI [22]: > 47.7 µM | TGI [23]: > 81.6 µM | TGI [24]: > 100 µM | TGI [25]: 41.4 µM | TGI [26]: > 77.7 µM | TGI [27]: > 100 µM | TGI [28]: > 100 µM | TGI [29]: 31.9 µM | TGI [30]: > 100 µM | TGI [31]: > 100 µM | TGI [32]: > 100 µM | TGI [33]: 59.3 µM | TGI [34]: > 100 µM | TGI [35]: > 100 µM | TGI [36]: 99.3 µM | TGI [37]: > 64.3 µM | TGI [38]: > 100 µM | TGI [39]: > 100 µM | TGI [40]: 54.7 µM | TGI [41]: > 100 µM | TGI [42]: > 86.4 µM | TGI [43]: 32.5 µM | TGI [44]: 50.9 µM | TGI [45]: > 100 µM | TGI [46]: 37.2 µM | TGI [47]: 14.3 µM | TGI [48]: 99.6 µM | TGI [49]: 68.8 µM | TGI [50]: 36.9 µM | TGI [51]: 58.8 µM | TGI [52]: 85.5 µM | TGI [53]: > 56.8 µM | TGI [54]: 32.6 µM | TGI [55]: > 100 µM | TGI [56]: 26.2 µM | TGI [57]: > 85.1 µM | TGI [58]: > 100 µM | TGI [59]: 28.7 µM

CCCCC(=O)OC[n+]1cccc(-c2c(COC(=O)NC(C)C)c(COC(=O)NC(C)C)c3n2CCC3)c1
TGI [1]: 60.7 µM | TGI [2]: > 100 µM | TGI [3]: > 77.4 µM | TGI [4]: > 100 µM | TGI [5]: > 100 µM | TGI [6]: > 85 µM | TGI [7]: > 100 µM | TGI [8]: > 100 µM | TGI [9]: > 100 µM | TGI [10]: > 65.9 µM | TGI [11]: > 100 µM | TGI [12]: > 100 µM | TGI [13]: > 100 µM | TGI [14]: > 100 µM | TGI [15]: > 100 µM | TGI [16]: > 100 µM | TGI [17]: > 81.5 µM | TGI [18]: > 100 µM | TGI [19]: 56 µM | TGI [20]: > 100 µM | TGI [21]: 49.4 µM | TGI [22]: > 100 µM | TGI [23]: > 100 µM | TGI [24]: > 100 µM | TGI [25]: 70.6 µM | TGI [26]: > 100 µM | TGI [27]: > 100 µM | TGI [28]: > 100 µM | TGI [29]: > 100 µM | TGI [30]: > 100 µM | TGI [31]: > 92.6 µM | TGI [32]: > 100 µM | TGI [33]: > 76 µM | TGI [34]: > 100 µM | TGI [35]: 71.6 µM | TGI [36]: > 100 µM | TGI [37]: > 100 µM | TGI [38]: > 100 µM | TGI [39]: > 100 µM | TGI [40]: > 100 µM | TGI [41]: > 100 µM | TGI [42]: > 100 µM | TGI [43]: 77.2 µM | TGI [44]: > 100 µM | TGI [45]: 98.7 µM | TGI [46]: > 100 µM | TGI [47]: 52.3 µM | TGI [48]: > 100 µM | TGI [49]: 82.8 µM | TGI [50]: > 100 µM | TGI [51]: > 100 µM | TGI [52]: > 100 µM | TGI [53]: > 100 µM | TGI [54]: 71.7 µM | TGI [55]: > 100 µM | TGI [56]: > 100 µM | TGI [57]: 55.2 µM | TGI [58]: 49.2 µM | TGI [59]: > 81.9 µM
